Assay results from patent US12377080B2, “Allosteric EGFR inhibitors and methods of use thereof” (Dana-Farber Cancer Institute, Inc., priority 2019, dated 2025).

Columns and labels:
[1] = biological target: EGFR L858R/T790M (Homo sapiens (Human), UniProt P00533, L858R/T790M); assay: HTRF-based EGFR biochemical assay (L858R/T790M); details: 100 μM ATP
Protocol: (§1) EGFR biochemical activity measurements were carried out using the homogeneous time-resolved fluorescence (HTRF) assay (Cisbio). Inhibitors and DMSO normalizations were first dispensed to empty black low-volume 384-well plates (Corning) with D300 digital liquid dispenser (HP). All reactions were carried out at room temperature and solutions were added to plates with a Multidrop Combi Reagent Dispenser (ThermoFisher). The reaction mixture (10 μL final volume) contained 1 μM tyrosine kinase peptide-biotin substrate and mutant EGFR in a reaction buffer (50 mM HEPES pH 7,0, 5 mM MgCl2,1 mM MnCl2, 0.01% BSA, 2 mM TCEP, 0.1 mM NaVO4). Enzyme concentrations were adjusted to accommodate varying kinase activities (L858R 0.1 nM, L858R!T790M 0,02 nM). Enzyme reaction solution (2× concentrations, 5 μL) was added to 384-well plates containing compounds and incubated for 30 mins. Enzyme reactions were initiated with the addition of […] of ATP to a final concentration of 100 μM and reacted for 20 mins. Reactions were quenched with the addition of 10 μL of phospho-tyrosine antibody-Europium(III) cryptate (1-to-180 volume ratio) and Streptavidin-XL665 (46.7 nM) in EDTA-containing detection buffer, then incubated at room temperature for 1 hour, and read with a PHERAstar plate reader (excitation =337 nm, emission =620 nm and 665 nm).

[2] = test system: EGFR L858R/T790M mutant Ba/F3 Cells; assay: Ba/F3 cell proliferation (Cell Titer Glo) in combination with cetuximab; format: cell-based, murine; details: 72 hours
Source text: The EGFR mutant L858R, Del E746_A750, L858R/T790M, Del E746_A750/T790M, L858R/T790MIC797S, and DellT790MIC797S Ba/F3 cells have been previously described (Zhou, W., et al, Nature 462, 2009, 1070-1074). All cell lines were maintained in RPM I 1640 (Cellgro; Mediatech Inc., Herndon, CA) supplemented with 10% FBS, 100 units/mL penicillin, 100 units/mL streptomycin. The EGFR 1941 R mutation was introduced via site directed mutagenesis using the Quick Change Site-Directed Mutagenesis kit (Stratagene; La Jolla, CA) according to the manufacturer's instructions. All constructs were confirmed by DNA sequencing. The constructs were shuttled into the retroviral vector JP1540 using the Cre-recombination system (Agilent Technologies, Santa Clara, CA). Ba/F3 cells were then infected with retrovirus per standard protocols, as described previously (Zhou, et al, Nature 2009). Stable clones were obtained by selection in puromycin (2 μg/ml),
Growth and inhibition of growth was assessed by the Cell Titer Glo assay (Promega, Madison, WI) and was performed according to the manufacturer's instructions. The Cell Titer Glo assay is a luminescence-based method used to determine the number of viable cells based on quantitation of the ATP present, which is directly proportional to the amount of metabolically active cells present. Ba/F3 cells of different EGFR genotypes were exposed to compounds as a single agent or in combination with […] for 72 hours and the number of cells used per experiment was determined empirically as has been previously established (Zhou, et al., Nature 2009). All experimental points were set up in triplicates in 384-well plates and all experiments were repeated at least three times. […] The curves were fitted using a non-linear regression model with a sigmoidal dose response.

[3] = biological target: EGFR L858R (Homo sapiens (Human), UniProt P00533, L858R); assay: HTRF-based EGFR biochemical assay (L858R); details: 100 μM ATP
Sequence of EGFR L858R (P00533 25-1210 L858R): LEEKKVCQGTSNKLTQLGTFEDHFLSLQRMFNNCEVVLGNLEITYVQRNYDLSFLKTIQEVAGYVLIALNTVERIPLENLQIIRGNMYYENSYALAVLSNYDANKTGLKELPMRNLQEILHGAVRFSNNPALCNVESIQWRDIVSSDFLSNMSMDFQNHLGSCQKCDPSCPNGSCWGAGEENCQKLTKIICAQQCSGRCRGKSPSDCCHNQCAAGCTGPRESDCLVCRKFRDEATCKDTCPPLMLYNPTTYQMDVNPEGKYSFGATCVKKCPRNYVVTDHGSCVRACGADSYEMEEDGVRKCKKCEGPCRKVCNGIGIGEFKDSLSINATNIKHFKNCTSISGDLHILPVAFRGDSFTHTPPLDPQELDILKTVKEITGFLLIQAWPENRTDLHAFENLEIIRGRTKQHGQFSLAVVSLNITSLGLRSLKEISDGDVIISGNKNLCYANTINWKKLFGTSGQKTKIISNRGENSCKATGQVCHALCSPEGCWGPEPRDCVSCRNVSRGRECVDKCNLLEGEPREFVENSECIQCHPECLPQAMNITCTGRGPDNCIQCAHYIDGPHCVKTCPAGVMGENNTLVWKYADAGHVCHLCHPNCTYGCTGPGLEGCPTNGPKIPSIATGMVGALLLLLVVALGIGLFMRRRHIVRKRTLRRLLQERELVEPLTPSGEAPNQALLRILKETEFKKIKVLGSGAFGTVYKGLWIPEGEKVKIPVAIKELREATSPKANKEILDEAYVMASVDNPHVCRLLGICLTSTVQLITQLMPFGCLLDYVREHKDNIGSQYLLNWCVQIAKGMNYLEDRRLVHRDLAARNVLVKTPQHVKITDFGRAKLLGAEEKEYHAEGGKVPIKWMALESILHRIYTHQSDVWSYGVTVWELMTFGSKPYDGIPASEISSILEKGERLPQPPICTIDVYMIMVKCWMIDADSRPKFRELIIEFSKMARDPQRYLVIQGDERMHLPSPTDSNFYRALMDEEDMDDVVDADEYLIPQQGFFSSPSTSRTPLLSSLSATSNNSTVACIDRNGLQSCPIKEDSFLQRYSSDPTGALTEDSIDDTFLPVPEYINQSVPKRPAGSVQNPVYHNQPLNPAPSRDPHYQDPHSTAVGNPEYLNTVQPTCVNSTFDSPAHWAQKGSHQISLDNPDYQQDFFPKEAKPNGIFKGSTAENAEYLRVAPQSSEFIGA
Protocol: as §1

[4] = test system: NSCLC that have developed resistance to gefitinib or erlotinib; details: patients with NSCLC resistant to gefitinib or erlotinib; cited from earlier work

Sequence of EGFR L858R/T790M (P00533 25-1210 T790M/L858R): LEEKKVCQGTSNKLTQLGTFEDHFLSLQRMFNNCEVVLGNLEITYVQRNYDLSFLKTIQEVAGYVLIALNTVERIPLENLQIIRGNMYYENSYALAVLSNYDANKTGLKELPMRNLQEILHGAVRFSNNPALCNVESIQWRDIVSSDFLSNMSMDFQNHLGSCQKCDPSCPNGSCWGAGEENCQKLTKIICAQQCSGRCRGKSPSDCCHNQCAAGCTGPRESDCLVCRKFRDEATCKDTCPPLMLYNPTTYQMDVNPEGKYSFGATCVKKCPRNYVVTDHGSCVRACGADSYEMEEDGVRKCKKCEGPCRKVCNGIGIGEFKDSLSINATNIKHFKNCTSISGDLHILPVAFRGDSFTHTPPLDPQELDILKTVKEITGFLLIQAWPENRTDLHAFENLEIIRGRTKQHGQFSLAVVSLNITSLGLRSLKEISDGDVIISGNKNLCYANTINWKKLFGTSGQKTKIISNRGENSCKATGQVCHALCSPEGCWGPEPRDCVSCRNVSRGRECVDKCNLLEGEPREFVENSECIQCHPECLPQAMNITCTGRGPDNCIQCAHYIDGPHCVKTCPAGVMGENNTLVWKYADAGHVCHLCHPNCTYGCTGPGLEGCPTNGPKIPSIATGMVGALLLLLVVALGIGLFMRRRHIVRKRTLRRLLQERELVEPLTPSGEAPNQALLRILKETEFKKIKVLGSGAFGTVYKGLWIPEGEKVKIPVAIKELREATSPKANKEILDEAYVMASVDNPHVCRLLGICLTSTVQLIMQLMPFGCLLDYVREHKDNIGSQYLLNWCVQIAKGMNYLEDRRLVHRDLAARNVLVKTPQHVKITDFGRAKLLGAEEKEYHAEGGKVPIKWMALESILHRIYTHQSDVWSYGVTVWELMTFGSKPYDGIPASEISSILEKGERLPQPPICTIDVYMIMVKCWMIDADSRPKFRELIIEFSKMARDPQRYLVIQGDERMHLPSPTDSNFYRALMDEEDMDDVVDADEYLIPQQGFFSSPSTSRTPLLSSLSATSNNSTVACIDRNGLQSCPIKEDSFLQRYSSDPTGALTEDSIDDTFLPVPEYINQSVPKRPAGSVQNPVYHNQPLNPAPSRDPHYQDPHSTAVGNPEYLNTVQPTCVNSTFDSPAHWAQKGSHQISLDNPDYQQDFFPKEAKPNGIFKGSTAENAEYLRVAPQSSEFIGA

| Structure (SMILES) | IC50 [1] [µM] | IC50 [2] [µM] | IC50 [3] [µM] | RR (response rate) [4] |
| --- | --- | --- | --- | --- |
| CN1CCN(c2ccc(-c3cnc4c(c3)C(=O)N(C(C(=O)Nc3nccs3)c3cccc(F)c3)C4)cc2)CC1 (stereo not shown) [Compound 10, 2-(3-fluorophenyl)-2-(3-(4-(4-methylpiperazin-1-yl)phenyl)-5-oxo-5,7-dihydro-6H-pyrrolo-[3,4-b]pyridin-6-yl)-N-(thiazol-2-yl)acetamide] | 0.004 | 0.1 | 0.046 |  |
| CN(C)C/C=C/C(=O)Nc1cc2c(Nc3ccc(F)c(Cl)c3)ncnc2cc1O[C@H]1CCOC1 [afatinib] |  |  |  | less than 10% |
| CN1CCN(c2ccc(-c3cc4c(cn3)CN(C(C(=O)Nc3nccs3)c3cccc(F)c3)C4=O)cc2)CC1 (stereo not shown) [Compound 7, 2-(3-fluorophenyl)-2-(6-(4-(4-methylpiperazin-1-yl)phenyl)-1-oxo-1,3-dihydro-2H-pyrrolo-[3,4-c]pyridin-2-yl)-N-(thiazol-2-yl)acetamide] | 0.01 | 0.48 | 0.301 |  |
